Source: US20240391862A1, “(1,4,5-TRISUBSTITUTED-1H-PYRAZOL-3-YL)OXY-2-ALKOXY ALKYL ACIDS AND THEIR DERIVATIVES, THEIR SALTS AND THEIR USE AS HERBICIDAL AGENTS” (Bayer AKtiengesellschaft, priority 2021, published 2024)

How the values were obtained:
ZEAMX = test: Post-emergence herbicidal effect and crop plant compatibility, greenhouse pot test; assay type: in vivo, Zea mays; details: 20 g/ha, one-leaf stage, rated visually after about 3 weeks vs untreated controls
From the text: (§1) • ALOMY: Alopecurus myosuroides SETVI: Setaria viridis • AVEFA: Avena fatua POLCO: Fallopia convolvulus • AMARE: Amaranthus retroflexus ECHCG: Echinochloa crus-galli • LOLRJ: Lolium rigidum STEME: Stellaria media • VERPE: Veronica persica MATIN: Tripleurospermum inodorum • DIGSA: Digitaria sanguinalis ABUTH: Abutylon threophrasti • TRZAS: Triticum aestivum VIOTR: Viola tricolor • BRSNW: Brassica napus ZEAMX: Zea mays • PHBPU: Ipomoea purpurea GLXMA: Glycine max • ORYSA: Oryza sativa HORMU: Hordeum murinum
(§2) Seeds of monocotyledonous and dicotyledonous weeds and crop plants are placed in sandy loam in plastic or organic planting pots, covered with soil and cultivated in a greenhouse under controlled growth conditions. 2 to 3 weeks after sowing, the trial plants are treated at the one-leaf stage. The compounds of the invention, formulated in the form of wettable powders (WP) or as emulsion concentrates (EC), are then sprayed onto the green parts of the plants as aqueous suspension or emulsion with addition of 0.5% additive at a water application rate of 600 l/ha (converted). After the test plants have been kept in the greenhouse under optimum growth conditions for about 3 weeks, the activity of the preparations is rated visually in comparison to untreated controls. For example, 100% activity=the plants have died, 0% activity=like control plants.
(§3) Tables 20a to 38c below show the effects/crop compatibilities of selected compounds of the general formula (I) on various harmful plants at an application rate corresponding to 20 to 320 g/ha, which were obtained by the trial procedure specified above.

ABUTH = test: Post-emergence herbicidal effect, greenhouse pot test; assay type: in vivo, Abutilon theophrasti; details: visual rating about 3 weeks after treatment
From the text: as §1, §2, §3

ALOMY = test: as above; assay type: in vivo, Alopecurus myosuroides; details: 320 g/ha, visual rating about 3 weeks after treatment
From the text: as §1, §2, §3

AVEFA = test: as above; assay type: in vivo, Avena fatua; details: visual rating about 3 weeks after treatment
From the text: as §1, §2, §3

DIGSA = test: as above; assay type: in vivo, Digitaria sanguinalis; details: visual rating about 3 weeks after treatment
From the text: as §1, §2, §3

ECHCG = test: as above; assay type: in vivo, Echinochloa crus-galli
From the text: as §1, §2, §3

MATIN = test: as above; assay type: in vivo, Tripleurospermum inodorum
From the text: as §1, §2, §3

PHBPU = test: as above; assay type: in vivo, Ipomoea purpurea
From the text: as §1, §2, §3

POLCO = test: as above; assay type: in vivo, Fallopia convolvulus
From the text: as §1, §2, §3

SETVI = test: as above; assay type: in vivo, Setaria viridis
From the text: as §1, §2, §3

VERPE = test: as above; assay type: in vivo, Veronica persica
From the text: as §1, §2, §3

VIOTR = test: as above; assay type: in vivo, Viola tricolor
From the text: as §1, §2, §3

KCHSC = test: as above; assay type: in vivo
Procedure: as §2, with “plants. Tables 20a to 38c below show the effects/crop compatibilities of selected compounds of the general formula (I) on various harmful plants at an application rate corresponding to 20 to 320 g/ha, which were obtained by the trial procedure specified above.” for “plants.”

SMILES: COC(=O)CCOC(=O)C(OC)Oc1nn(-c2ccccc2F)c(-c2ccc(F)nc2)c1C(F)(F)F (stereo not drawn) [Example I-62]
- Post-emergence effect at 20 g/ha against ZEAMX in % (ZEAMX): 0%
- Post-emergence effect against ABUTH (ABUTH; 80 g/ha): 80%
- Post-emergence effect against ABUTH (ABUTH; 320 g/ha): 90%
- Post-emergence effect against ALOMY (ALOMY): 90%
- Post-emergence effect against AVEFA (AVEFA; 80 g/ha): 90%
- Post-emergence effect against AVEFA (AVEFA; 320 g/ha): 90%
- Post-emergence effect against DIGSA (DIGSA; 80 g/ha): 90%
- Post-emergence effect against DIGSA (DIGSA; 320 g/ha): 90%
- Post-emergence effect against ECHCG in % (ECHCG; 80 g/ha): 90%
- Post-emergence effect against ECHCG in % (ECHCG; 320 g/ha): 90%
- Post-emergence effect against MATIN in % (MATIN; 80 g/ha): 80%
- Post-emergence effect against MATIN in % (MATIN; 320 g/ha): 80%
- Post-emergence effect against PHBPU in % (PHBPU; 20 g/ha): 90%
- Post-emergence effect against PHBPU in % (PHBPU; 80 g/ha): 90%
- Post-emergence effect against PHBPU in % (PHBPU; 320 g/ha): 90%
- Post-emergence effect against POLCO in % (POLCO; 80 g/ha): 80%
- Post-emergence effect against POLCO in % (POLCO; 320 g/ha): 80%
- Post-emergence effect against SETVI in % (SETVI; 80 g/ha): 90%
- Post-emergence effect against SETVI in % (SETVI; 320 g/ha): 90%
- Post-emergence effect against VERPE in % (VERPE; 80 g/ha): 80%
- Post-emergence effect against VERPE in % (VERPE; 320 g/ha): 80%
- Post-emergence effect against VIOTR in % (VIOTR; 80 g/ha): 90%
- Post-emergence effect against VIOTR in % (VIOTR; 320 g/ha): 90%
- Post-emergence effect against KCHSC in % (KCHSC; 20 g/ha): 80%
- Post-emergence effect against KCHSC in % (KCHSC; 80 g/ha): 90%
- Post-emergence effect against KCHSC in % (KCHSC; 320 g/ha): 90%

SMILES: COC(=O)CCOC(=O)C(OC)Oc1nn(-c2ccccc2F)c(-c2ccc(F)nc2)c1C1CC1 (stereo not drawn) [Example I-61]
- Post-emergence effect at 20 g/ha against ZEAMX in % (ZEAMX): 0%
- Post-emergence effect against ABUTH (ABUTH; 80 g/ha): 80%
- Post-emergence effect against ABUTH (ABUTH; 320 g/ha): 80%
- Post-emergence effect against ALOMY (ALOMY): 90%
- Post-emergence effect against AVEFA (AVEFA; 80 g/ha): 80%
- Post-emergence effect against AVEFA (AVEFA; 320 g/ha): 90%
- Post-emergence effect against DIGSA (DIGSA; 80 g/ha): 80%
- Post-emergence effect against DIGSA (DIGSA; 320 g/ha): 90%
- Post-emergence effect against ECHCG in % (ECHCG; 80 g/ha): 90%
- Post-emergence effect against ECHCG in % (ECHCG; 320 g/ha): 90%
- Post-emergence effect against MATIN in % (MATIN; 80 g/ha): 80%
- Post-emergence effect against MATIN in % (MATIN; 320 g/ha): 80%
- Post-emergence effect against PHBPU in % (PHBPU; 80 g/ha): 90%
- Post-emergence effect against PHBPU in % (PHBPU; 320 g/ha): 90%
- Post-emergence effect against POLCO in % (POLCO; 80 g/ha): 80%
- Post-emergence effect against POLCO in % (POLCO; 320 g/ha): 80%
- Post-emergence effect against SETVI in % (SETVI; 80 g/ha): 90%
- Post-emergence effect against SETVI in % (SETVI; 320 g/ha): 90%
- Post-emergence effect against VERPE in % (VERPE; 80 g/ha): 80%
- Post-emergence effect against VERPE in % (VERPE; 320 g/ha): 80%
- Post-emergence effect against VIOTR in % (VIOTR; 20 g/ha): 80%
- Post-emergence effect against VIOTR in % (VIOTR; 80 g/ha): 90%
- Post-emergence effect against VIOTR in % (VIOTR; 320 g/ha): 90%
- Post-emergence effect against KCHSC in % (KCHSC; 80 g/ha): 80%
- Post-emergence effect against KCHSC in % (KCHSC; 320 g/ha): 90%

SMILES: CCOC(Oc1nn(-c2ccccc2F)c(-c2ccc(F)nc2)c1Br)C(=O)OCCC(=O)OC (single isomer, unassigned) [Example I-63, Methyl 3-{[(2R*)-2-{[4-bromo-1-(2-fluorophenyl)-5-(6-fluoropyridin-3-yl)-1H-pyrazol-3-yl]oxy}-2-ethoxyethanoyl]oxy}propanoate]
- pest or weed control at 80 g/ha (ABUTH; Abutilon theophrasti, 504 h, 80 g/ha, read-out: Post-emergence effect against ABUTH): 90%
- pest or weed control at 320 g/ha (ABUTH; Abutilon theophrasti, 504 h, 320 g/ha, read-out: Post-emergence effect against ABUTH): 90%
- pest or weed control at 320 g/ha (ALOMY; Alopecurus myosuroides, 504 h, read-out: Post-emergence effect against ALOMY): 90%
- pest or weed control at 80 g/ha (AVEFA; Avena fatua, 504 h, 80 g/ha, read-out: Post-emergence effect against AVEFA): 80%
- pest or weed control at 320 g/ha (AVEFA; Avena fatua, 504 h, 320 g/ha, read-out: Post-emergence effect against AVEFA): 90%
- pest or weed control at 80 g/ha (DIGSA; Digitaria sanguinalis, 504 h, 80 g/ha, read-out: Post-emergence effect against DIGSA): 90%
- pest or weed control at 320 g/ha (DIGSA; Digitaria sanguinalis, 504 h, 320 g/ha, read-out: Post-emergence effect against DIGSA): 90%
- pest or weed control at 20 g/ha (ECHCG; Echinochloa crus-galli, 504 h, 20 g/ha, visual rating about 3 weeks after treatment, read-out: Post-emergence effect against ECHCG): 90%
- pest or weed control at 80 g/ha (ECHCG; Echinochloa crus-galli, 504 h, 80 g/ha, read-out: Post-emergence effect against ECHCG in %): 90%
- pest or weed control at 320 g/ha (ECHCG; Echinochloa crus-galli, 504 h, 320 g/ha, read-out: Post-emergence effect against ECHCG in %): 90%
- pest or weed control at 80 g/ha (MATIN; Tripleurospermum inodorum, 504 h, 80 g/ha, read-out: Post-emergence effect against MATIN in %): 80%
- pest or weed control at 320 g/ha (MATIN; Tripleurospermum inodorum, 504 h, 320 g/ha, read-out: Post-emergence effect against MATIN in %): 80%
- pest or weed control at 20 g/ha (PHBPU; Ipomoea purpurea, 504 h, 20 g/ha, read-out: Post-emergence effect against PHBPU in %): 80%
- pest or weed control at 80 g/ha (PHBPU; Ipomoea purpurea, 504 h, 80 g/ha, read-out: Post-emergence effect against PHBPU in %): 90%
- pest or weed control at 320 g/ha (PHBPU; Ipomoea purpurea, 504 h, 320 g/ha, read-out: Post-emergence effect against PHBPU in %): 90%
- pest or weed control at 80 g/ha (POLCO; Fallopia convolvulus, 504 h, 80 g/ha, read-out: Post-emergence effect against POLCO in %): 80%
- pest or weed control at 320 g/ha (POLCO; Fallopia convolvulus, 504 h, 320 g/ha, read-out: Post-emergence effect against POLCO in %): 90%
- pest or weed control at 80 g/ha (SETVI; Setaria viridis, 504 h, 80 g/ha, read-out: Post-emergence effect against SETVI in %): 90%
- pest or weed control at 320 g/ha (SETVI; Setaria viridis, 504 h, 320 g/ha, read-out: Post-emergence effect against SETVI in %): 90%
- pest or weed control at 80 g/ha (VERPE; Veronica persica, 504 h, 80 g/ha, read-out: Post-emergence effect against VERPE in %): 80%
- pest or weed control at 320 g/ha (VERPE; Veronica persica, 504 h, 320 g/ha, read-out: Post-emergence effect against VERPE in %): 80%
- pest or weed control at 80 g/ha (VIOTR; Viola tricolor, 504 h, 80 g/ha, read-out: Post-emergence effect against VIOTR in %): 80%
- pest or weed control at 320 g/ha (VIOTR; Viola tricolor, 504 h, 320 g/ha, read-out: Post-emergence effect against VIOTR in %): 90%
- pest or weed control at 320 g/ha (KCHSC; 504 h, 320 g/ha, read-out: Post-emergence effect against KCHSC in %): 90%
